Measurements from the NIST ThermoML archive (doi:10.1016/j.jct.2016.01.012).
± gives the expanded uncertainty stated by the source. Values belong to the compound of their own block, whether it stands above or below them.

Legend:
[1] = refractive index (Na D-line) (dimensionless); settings: 298.15 K; 100 kPa; Liquid; Standard Abbe refractometry
[2] = 100 kPa, Liquid; for viscosity: Falling or rolling sphere viscometry
[3] = refractive index (Na D-line) (dimensionless); xn = mol fraction of the nth substance listed; settings: 298.15 K, 100 kPa, Liquid, Standard Abbe refractometry
[4] = xn = mol fraction of the nth substance listed; settings: 100 kPa, Liquid; for electrical conductivity: Direct current cell with electrodes; for viscosity: Falling or rolling sphere viscometry, x2 = 0

SMILES: CN(C)C(=[NH2+])N(C)C.c1c[n-]cn1 [1,1,3,3-tetramethylguanidinium imidazol-1-ide]
refractive index [1]: 1.4943 ± 0.0006
electrical conductivity ([2]; 298.15 K, Direct current cell with electrodes): 0.218 ± 0.002 S/m

SMILES: CN(C)C(=[NH2+])N(C)C.c1c[n-]cn1 [1,1,3,3-tetramethylguanidinium imidazol-1-ide] + CCCCO
refractive index ([3]; x1 = 0.0499): 1.4074 ± 0.0005
refractive index ([3]; x1 = 0.1004): 1.4159 ± 0.0005
refractive index ([3]; x1 = 0.1999): 1.4316 ± 0.0005
refractive index ([3]; x1 = 0.2997): 1.4443 ± 0.0005
refractive index ([3]; x1 = 0.3985): 1.4545 ± 0.0005
refractive index ([3]; x1 = 0.4997): 1.4641 ± 0.0005
refractive index ([3]; x1 = 0.6499): 1.4748 ± 0.0006
refractive index ([3]; x1 = 0.8002): 1.4839 ± 0.0006
refractive index ([3]; x1 = 0.9004): 1.4888 ± 0.0006
refractive index ([3]; x1 = 1): 1.4943 ± 0.0006

SMILES: CN(C)C(=[NH2+])N(C)C.c1c[n-]cn1 [1,1,3,3-tetramethylguanidinium imidazol-1-ide] + CCCO
refractive index ([3]; x1 = 0.0499): 1.3969 ± 0.0006
refractive index ([3]; x1 = 0.0999): 1.4086 ± 0.0005
refractive index ([3]; x1 = 0.2002): 1.428 ± 0.0005
refractive index ([3]; x1 = 0.2996): 1.4423 ± 0.0005
refractive index ([3]; x1 = 0.4002): 1.4545 ± 0.0005
refractive index ([3]; x1 = 0.4988): 1.4642 ± 0.0005
refractive index ([3]; x1 = 0.6264): 1.4742 ± 0.0006
refractive index ([3]; x1 = 0.8001): 1.4848 ± 0.0006
refractive index ([3]; x1 = 0.9006): 1.4895 ± 0.0006
refractive index ([3]; x1 = 1): 1.4943 ± 0.0006

SMILES: CN(C)C(=[NH2+])N(C)C.c1c[n-]cn1 [1,1,3,3-tetramethylguanidinium imidazol-1-ide] + CCO
refractive index ([3]; x1 = 0.0483): 1.3799 ± 0.0006
refractive index ([3]; x1 = 0.0999): 1.3983 ± 0.0006
refractive index ([3]; x1 = 0.2003): 1.4242 ± 0.0006
refractive index ([3]; x1 = 0.3001): 1.4405 ± 0.0005
refractive index ([3]; x1 = 0.3999): 1.4547 ± 0.0005
refractive index ([3]; x1 = 0.5): 1.4652 ± 0.0006
refractive index ([3]; x1 = 0.643): 1.4762 ± 0.0006
refractive index ([3]; x1 = 0.7966): 1.4854 ± 0.0006
refractive index ([3]; x1 = 0.8987): 1.4903 ± 0.0006
refractive index ([3]; x1 = 1): 1.4943 ± 0.0006
electrical conductivity ([4]; 298.15 K, x1 = 0.01): 0.0131 ± 0.001 S/m
electrical conductivity ([4]; 298.15 K, x1 = 0.0299): 0.0337 ± 0.001 S/m
electrical conductivity ([4]; 298.15 K, x1 = 0.0897): 0.092 ± 0.0013 S/m
electrical conductivity ([4]; 298.15 K, x1 = 0.1197): 0.12 ± 0.0014 S/m
electrical conductivity ([4]; 298.15 K, x1 = 0.1499): 0.139 ± 0.0015 S/m
electrical conductivity ([4]; 298.15 K, x1 = 0.1797): 0.16 ± 0.0017 S/m
electrical conductivity ([4]; 298.15 K, x1 = 0.2001): 0.166 ± 0.0017 S/m
electrical conductivity ([4]; 298.15 K, x1 = 0.2195): 0.173 ± 0.0018 S/m
electrical conductivity ([4]; 298.15 K, x1 = 0.2398): 0.179 ± 0.0018 S/m
electrical conductivity ([4]; 298.15 K, x1 = 0.2602): 0.185 ± 0.0019 S/m
electrical conductivity ([4]; 298.15 K, x1 = 0.2996): 0.199 ± 0.002 S/m
electrical conductivity ([4]; 298.15 K, x1 = 0.3995): 0.213 ± 0.002 S/m
electrical conductivity ([4]; 298.15 K, x1 = 0.5): 0.221 ± 0.002 S/m
electrical conductivity ([4]; 298.15 K, x1 = 0.6467): 0.227 ± 0.002 S/m
electrical conductivity ([4]; 298.15 K, x1 = 0.801): 0.229 ± 0.002 S/m
electrical conductivity ([4]; 298.15 K, x1 = 0.8996): 0.223 ± 0.002 S/m
electrical conductivity ([4]; 298.15 K, x1 = 1): 0.218 ± 0.002 S/m

SMILES: CN(C)C(=[NH2+])N(C)C.c1c[n-]cn1 [1,1,3,3-tetramethylguanidinium imidazol-1-ide] + CO
refractive index ([3]; x1 = 0.0501): 1.3631 ± 0.0008
refractive index ([3]; x1 = 0.1005): 1.389 ± 0.0006
refractive index ([3]; x1 = 0.1957): 1.4222 ± 0.0006
refractive index ([3]; x1 = 0.2953): 1.4423 ± 0.0005
refractive index ([3]; x1 = 0.393): 1.4577 ± 0.0005
refractive index ([3]; x1 = 0.5005): 1.4688 ± 0.0005
refractive index ([3]; x1 = 0.6431): 1.4791 ± 0.0006
refractive index ([3]; x1 = 0.7815): 1.4865 ± 0.0006
refractive index ([3]; x1 = 0.8994): 1.4915 ± 0.0006
refractive index ([3]; x1 = 1): 1.4943 ± 0.0006

SMILES: CCCCO [butan-1-ol]
refractive index [1]: 1.3975 ± 0.0005

SMILES: CCCCO [butan-1-ol] + CN(C)C(=[NH2+])N(C)C.c1c[n-]cn1
refractive index ([3]; x2 = 0): 1.3975 ± 0.0005

SMILES: CCO [ethanol]
refractive index [1]: 1.3598 ± 0.0005

Second part, the compound after the results:

refractive index ([3]; x2 = 0): 1.3598 ± 0.0005
SMILES: CCO [ethanol] + CN(C)C(=[NH2+])N(C)C.c1c[n-]cn1

refractive index [1]: 1.3267 ± 0.0005
SMILES: CO [methanol]

refractive index ([3]; x2 = 0): 1.3267 ± 0.0005
SMILES: CO [methanol] + CN(C)C(=[NH2+])N(C)C.c1c[n-]cn1

refractive index [1]: 1.3836 ± 0.0005
SMILES: CCCO [propan-1-ol]

refractive index ([3]; x2 = 0): 1.3836 ± 0.0005
SMILES: CCCO [propan-1-ol] + CN(C)C(=[NH2+])N(C)C.c1c[n-]cn1

refractive index [1]: 1.3331 ± 0.0005
viscosity ([2]; 293.15 K): 0.997 ± 0.041 mPa·s
viscosity ([2]; 298.15 K): 0.886 ± 0.036 mPa·s
viscosity ([2]; 303.15 K): 0.799 ± 0.033 mPa·s
viscosity ([2]; 308.15 K): 0.726 ± 0.03 mPa·s
viscosity ([2]; 313.15 K): 0.665 ± 0.027 mPa·s
SMILES: O [water]

refractive index ([3]; x2 = 0): 1.3331 ± 0.0005
viscosity ([4]; 293.15 K): 0.997 ± 0.041 mPa·s
viscosity ([4]; 298.15 K): 0.886 ± 0.036 mPa·s
viscosity ([4]; 303.15 K): 0.799 ± 0.033 mPa·s
viscosity ([4]; 308.15 K): 0.726 ± 0.03 mPa·s
viscosity ([4]; 313.15 K): 0.665 ± 0.027 mPa·s
SMILES: O [water] + CN(C)C(=[NH2+])N(C)C.c1c[n-]cn1
